In the assay the target is T1, PLK1 kinase (Homo sapiens, UniProt P53350).
T1 construct: purchased Carnabio (Carna Biosciences) 05-157
The assay can be described thus: Inhibitory activity on PLK1 kinase. The format is biochemical. The conditions noted are these: for Imax: maximum effect caused by the compound at the test concentration. How it is done:
Detection solution PerkinElmer #TRF0218-M
Detection instrument PerkinElemer EnVision
a. Using the Echo machine, the compounds to be tested were diluted by 1:3 on a 384-well plate, and the highest concentration was 1 μM, with a total of 10 concentration points, and each concentration was tested in duplicate wells.
b. 5 μL/well of PLK1 kinase and peptide substrate mixture were added to the assay plate (containing controls).
d. The reaction was initiated by adding 5 μL/well of ATP solution;
e. The assay plate was centrifuged at 1000 rpm for about 15 seconds, a film was used to seal the assay plate which was incubated at 23° C. for a period of time;
f. A detection solution was added to all wells of the assay plate;
g. The assay plate was centrifuged at 1000 rpm for approximately 15 seconds, a film was used to seal the assay plate which was incubated at 23° C. for 60 min.
h. The assay plate was read on EnVision. The test results were analyzed using XLFIT5 software.

Structures are written as SMILES. pIC50: −log10 of the molar value. Like-named read-outs stand apart in the source and are kept apart here.

T1 sequence (P53350 whole entry): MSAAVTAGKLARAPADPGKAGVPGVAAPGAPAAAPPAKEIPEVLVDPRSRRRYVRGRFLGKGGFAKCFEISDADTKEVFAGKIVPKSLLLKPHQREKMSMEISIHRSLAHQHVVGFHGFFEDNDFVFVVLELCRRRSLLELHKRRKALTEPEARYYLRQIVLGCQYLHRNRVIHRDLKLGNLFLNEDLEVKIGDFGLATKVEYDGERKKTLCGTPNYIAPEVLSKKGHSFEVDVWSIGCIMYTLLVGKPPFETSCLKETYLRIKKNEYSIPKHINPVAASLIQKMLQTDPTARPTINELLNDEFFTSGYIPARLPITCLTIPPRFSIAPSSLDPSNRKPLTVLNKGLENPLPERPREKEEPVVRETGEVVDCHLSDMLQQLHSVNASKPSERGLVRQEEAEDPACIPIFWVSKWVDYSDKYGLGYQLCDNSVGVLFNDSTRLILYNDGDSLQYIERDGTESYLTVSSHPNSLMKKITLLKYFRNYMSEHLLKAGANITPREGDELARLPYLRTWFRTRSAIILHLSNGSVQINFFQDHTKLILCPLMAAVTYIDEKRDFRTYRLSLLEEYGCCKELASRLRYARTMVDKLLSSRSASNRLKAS

Usually pIC50 stands for −log10 of the IC50, conventionally taken in molar units. Regarding `CN1CCN(c2ccc(OC(F)(F)F)c(Nc3ncc4ccc5c(C(N)=O)cn(CCO)c5c4n3)c2)CC1` [Compound 21], the pIC50 was 9.12 and the Imax is reported as 99.15%.

As to `CN1CCN(c2ccc(OC(F)(F)F)c(Nc3ncc4ccc5c(C(N)=O)cn(C)c5c4n3)c2)CC1` [Compound 22], the Imax was 99.99%. Besides, the pIC50 (PLK1 kinase, highest concentration 1 μM, 10 points, read-out: IC50) was 8.82.

The compound `CN1CCN(c2ccc(OC(F)(F)F)c(Nc3ncc4ccc5c(C(=O)NO)nn(CCF)c5c4n3)c2)CC1` [Compound 25] had a pIC50 of 8.95 and an Imax of 100.23%.

In the case of `CN1CCN(c2ccc(OC(F)(F)F)c(Nc3ncc4ccc5c(C(N)=O)nn(C6CC6)c5c4n3)c2)CC1` [Compound 27], the pIC50 was 9.34 and the Imax came to 100.24%.

The compound `CN1CCN(c2ccc(OC(F)(F)F)c(Nc3ncc4ccc5c(C(N)=O)nn(CC(F)(F)F)c5c4n3)c2)CC1` [Compound 28] showed a negative-log IC50 (pIC50) of 9.17 and an Imax of 100.08%.

`CN1CCN(c2ccc(OC(F)(F)F)c(Nc3ncc4ccc5c(C(=O)NOCCO)nn(CCF)c5c4n3)c2)CC1` [Compound 30] gave a pIC50 of 9.11 and an Imax of 99.97%.

`CN1CCN(c2ccc(OC(F)(F)F)c(Nc3ncc4ccc5c(C(=O)NOCCO)nn(CCO)c5c4n3)c2)CC1` [Compound 31] showed a pIC50 of 8.81 and an Imax of 99.54%.

In turn, `CN1CCN(c2ccc(OC(F)(F)F)c(Nc3ncc4ccc5c(C(=O)NO)nn(CC(F)(F)F)c5c4n3)c2)CC1` [Compound 32] showed a pIC50 of 9.33 and an Imax of 99.87%.

Compound `C[C@@H](Oc1cc(-n2cnc3ccc(CN4CCN(C)CC4)cc32)sc1C(N)=O)c1ccccc1C(F)(F)F` [GSK461364, reference compound] yielded an Imax of 101.08%.

The record behind these values is patent US20260176249A1, “PROTEIN KINASE INHIBITOR, PREPARATION METHOD THEREFOR, AND APPLICATION THEREOF” (SHANDONG LUYE PHARMACEUTICAL CO., LTD., priority 2021, published 2026).
